The IC50 is the midpoint of a concentration-inhibition curve.

We go through one substance from patent US20040171566A1, “Antisense modulation of p38 mitogen activated protein kinase expression” (priority 1999, published 2004).

Series [1] relates to ovalbumin (OVA)-induced airway hyperresponsiveness. The series is described as follows: Mouse model of allergic inflammation (OVA), intratracheal oligonucleotide administration. Type of series: in vivo. The conditions noted are these: OVA mice. As for the experimental part: In the mouse model of allergic inflammation, mice were sensitized and challenged with aerosolized chicken ovalbumin (OVA). Airway responsiveness was assessed by inducing airflow obstruction with a methacholine aerosol using a noninvasive method. This methodology utilized unrestrained conscious mice that are placed into the main chamber of a plthysmograph (Buxco Electronics, Inc., Troy, N.Y.). Pressure differences between this chamber and a reference chamber were used to extrapolate minute volume, breathing frequency and enhanced pause (Penh). […] This parameter closely correlates with lung resistance as measured by traditional invasive techniques using ventilated animals (Hamelmann et al., 1997). […]
For intratracheal administration of ISIS 101757, female Balb/c mice (Charles Rivers Laboratory, Taconic Farms, N.Y.) were maintained in micro-isolator cages housed in a specific pathogen-free (SPF) facility. […] Animals were analyzed about 24 hours following the last nebulization using the Buxco electronics Biosystem. Lung function (Penh), lung histology (cell infiltration and mucus production), target mRNA reduction in the lung, inflammation (BAL cell type & number, cytokine levels), spleen weight and serum AST/ALT were determined. […]

The subject of series [2] is ovalbumin (OVA)-induced airway hyperresponsiveness and allergic inflammation. The series is described as follows: Mouse model of allergic inflammation (OVA), aerosol oligonucleotide administration. It counts as in vivo. As for the experimental part: In the mouse model of allergic inflammation, mice were sensitized and challenged with aerosolized chicken ovalbumin (OVA). Airway responsiveness was assessed by inducing airflow obstruction with a methacholine aerosol using a noninvasive method. This methodology utilized unrestrained conscious mice that are placed into the main chamber of a plthysmograph (Buxco Electronics, Inc., Troy, N.Y.). Pressure differences between this chamber and a reference chamber were used to extrapolate minute volume, breathing frequency and enhanced pause (Penh). Penh is a dimensionless parameter that is a function of total pulmonary airflow in mice (i.e., the sum of the airflow in the upper and lower respiratory tracts) during the respiratory cycle of the animal. The lower the Penh, the greater the airflow. This parameter closely correlates with lung resistance as measured by traditional invasive techniques using ventilated animals (Hamelmann et al., 1997). Dose-response data were plotted as raw Penh values to increasing concentrations of methacholine. This system was used to test the efficacy of an antisense oligonucleotide targeted to mouse p38α (ISIS 101757; SEQ ID NO: 177). Mismatched p38α oligonucleotide (ISIS 101758; SEQ ID NO: 266) was used as a negative control.
[…]. […] AHR was measured 24 hours after OVA challenge.
Animals were injected with a lethal dose of ketamine, the trachea was exposed and a cannula was inserted and secured by sutures. The lungs were lavaged twice with 0.5 ml aliquots of ice cold PBS with 0.2% FCS. The recovered BAL fluid was centrifuged at 1,000 rpm for 10 min at 4° C., frozen on dry ice and stored at −80° C. until used. Luminex was used to measure cytokine levels in BAL fluid and serum.
Cytospins of cells recovered from BAL fluid were prepared using a Shandon Cytospin 3 (Shandon Scientific LTD, Cheshire, England). Cell differentials were performed from slides stained with Leukostat (Fisher Scientific, Pittsburgh, Pa.). Total cell counts were quantified by hemocytometer and, together with the percent type by differential, were used to calculate specific cell number.
Before resection, lungs were inflated with 0.5 ml of 10% phosphate-buffered formalin and fixed overnight at 4° C. The lung samples were washed free of formalin with 1×PBS and subsequently dehydrated through an ethanol series prior to equilibration in xylene and embedded in paraffin. Sections (6μ) were mounted on slides and stained with hematoxylin/eosin, massons trichome and periodic acid-schiff (PAS) reagent. Parasagittal sections were analyzed by bright-field microscopy. Mucus cell content was assessed as the airway epithelium staining with PAS. Relative comparisons of mucus content were made between cohorts of animals by counting the number of PAS-positive airways.

Series [3] deals with p38α mRNA. The series is described as follows: Reduction of p38α mRNA in fibroblasts. Type of series: cell-based. The conditions noted are these: read-out: IC50 for reducing p38α mRNA.
Series [4] deals with p38α. The series is described as follows: p38α knock-down in mouse macrophage cell line RAW264.7, Western blotting. It counts as cell-based. (In general: A western blot detects proteins with antibodies after separation by electrophoresis.)
[5] abbreviates: sensitized mice, aerosol, compared to the mismatched control.

In the case of “ISIS 101757: antisense oligonucleotide targeted to mouse p38α, SEQ ID NO 177; 2′-MOE gapmer, all phosphorothioate linkages (antisense AGGTGCTCAGGACTCCATTT; all phosphorothioate, sugars by position and methylation of C not given here; 2'-MOE gapmer)”, in series [1], the “Penh response to methacholine (50 mg/ml) challenge” value is “dose-dependent inhibition”. Also, the “provocation concentration of methacholine required to achieve doubling of airway reactivity (PC200)” value in series [2] (OVA-challenged mice, inhaled) is on record as “increases”. Also, the “methacholine-induced AHR” value in series [2] (OVA-sensitized mice, aerosol, whole body plethysmography) is listed as “dose-dependently suppressed”. Besides, in series [2] (aerosol), the “OVA-induced increases in eosinophils recovered in BAL fluid” value is “significantly (P<0.05) reduced” and the “OVA-induced increases in total cell counts recovered in BAL fluid” value was “significantly (P<0.05) reduced”. In addition, in series [2] (aerosol, histology), the “OVA-induced inflammatory cell infiltration into the lungs (H&E stain)” value is given as “markedly inhibited” and the “mucus hypersecretion in the airway epithelium (PAS stain)” value is on record as “markedly inhibited”. Also, in series [2] (setting [5]), the “blood levels of OVA-specific IgE” value is on record as “significantly (P<0.05);lowered”, the “blood levels of OVA-specific IgG1” value is on record as “significantly (P<0.05);lowered” and the “blood levels of total IgE” value is given as “significantly (P<0.05);lowered”. The IC50 in series [3] was about 250 nM. Also, the p38α knock-down effect result in series [4] is given as “confirmed”.
